# From US6864086B2, “Nitric oxide-scavenging system for culturing oocytes, embryos, or other cells” (Board of Supervisors of Louisiana State University and …, priority 1998, dated 2005)
# “And” between values parts separate entries of the source, which are not always exact repeats. Identical values can stand only once.
# System: bovine IVF-oocytes
# Assay: Example 8: Hb (1 μg/ml) in mBECM co-culture, oocytes collected in different months, pre-hatching development
# Type: cell-based
# Parameters: key to Least square mean ± SE of embryos developed to 8-cell / Least square mean ± SE of embryos developed to 16-cell / Least square mean ± SE of embryos developed to Morula / Least square mean ± SE of embryos developed to Blastocyst / Least square mean ± SE of embryos developed to 2-cell: mean of per-embryo scores: 1 = developed to stage, 0 = not developed
# Method: The basic medium used for maturation of oocytes was tissue culture medium (TCM)-199 with Earle's salts, buffered with 25 mM HEPES (Gibco BRL, Grand Island, N.Y.) and supplemented with 10% (v/v) heat-inactivated fetal bovine serum (FBS; Hyclone Laboratories, Logan, Utah), 1 μg/ml estradiol-17β (NOBL Laboratories, Sioux Center, Iowa), 3 μg/ml bovine FSH (NOBL Laboratories), 6 μg/ml bovine LH (NOBL Laboratories), and 25 μg/ml gentamycin (Sigma Chemical Co., St. Louis, Mo.). The basic medium used for treatment of spermatozoa and fertilization of oocytes was a modified Tyrode's medium (J. Parrish et al., Capacitation of bovine sperm by heparin. Biol. Reprod. 38:1171-1180 (1988)), supplemented with 0.25 mM sodium pyruvate (Gibco BRL), 6 mg/ml fatty acid (FA)-free BSA (No. A-6003, Sigma), 15 μg/ml calcium heparin from porcine intestinal mucosa (183 USP/mg; H-8398, Sigma), and 25 μg/ml gentamycin. Modified bovine embryo culture medium (mBECM) containing 10 μM β-mercaptoethanol was used for culture of embryos, as described in J. Lim et al., “Roles of growth factors in the development of bovine embryos fertilized in vitro and cultured singly in a defined medium,” Reprod. Fertil. Dev., 8:1199-1205 (1996). mBECM supplemented with 10% (v/v) FBS was used for co-culturing inseminated oocytes with CGC. Osmolarity of the medium was maintained within the range of 265-290 mOsm.
# All cumulus-oocyte complexes (COC) were collected in Madison, Wis. (BOMED, Inc.) and were shipped in 2 ml of maturation medium in a battery powered incubator via overnight express mail service. Oocytes matured during transit and arrived within 24 h after exposure to maturation medium, pre-equilibrated at 39° C. in 5% CO2 in air. At 22 to 24 h after exposure to the medium, the COCs were inseminated in vitro as described in J. Lim et al., “Intracytoplasmic glutathione concentration and the role of β-mercaptoethanol in preimplantation development of bovine embryos,” Theriogenology, 46:429-439 (1996). At 18 h post-insemination, COCs were cultured in groups (28-40 embryos) in a 4-well multidish (Nunc, Roskilde, Denmark) containing 0.8-ml of mBECM. Embryos were dislodged from CGC at 36 to 48 h post-insemination.
# In Example 8, bovine follicular oocytes were collected from November 1996 to May 1997, and matured and fertilized in culture. (Oocytes collected during summer and early fall were not used in this study, to avoid interference from environmental heat stress on in vitro survival of embryos.) IVF embryos were collected at 18 h post-insemination and cultured in mBECM supplemented with FBS (10%, v/v), to which 0 or 1 μg/ml Hb (from bovine, mainly methemoglobin, H-2500, Sigma Co.) was added. Development of embryos to the 2-cell, 8-cell, 16-cell, morula, and blastocyst stages was monitored 48, 60, 120, 144 and 192 h post-insemination, respectively. As a supplemental experiment, some blastocysts in each treatment (20 or 28) were randomly collected, and the cell number of the blastocysts was counted by use of Hoechst stain 33342 and a fluorescent microscope (Diaphod, Nikkon, Tokyo, Japan). This experiment used 1675 embryos in 25 replicates, with IVF embryos randomly allotted among treatments.
# Embryos developed to the 2-cell, 8-cell, 16-cell, morula, and blastocyst stages at the pertinent observation times were individually scored ‘1’ (developed). Embryos that had not developed to these stages at the same times were scored ‘0’ (non-developed). Sums of the scores at each stage of development were evaluated by analysis of variance using a general linear model (PROC-GLM) in the SAS statistical programming package (1991). In Example 8, the combined effects of Hb addition and month of oocyte collection were first examined in a 2×7 factorial arrangement. Overall differences in embryonic development in Hb-free and Hb-containing culture systems were further evaluated. […] Differences were regarded as statistically significant where P values were less than 0.05.
substance,measurement,setting,value
hemoglobin [Hb],Least square mean ± SE of embryos developed to 2-cell,April,0.70 ± 0.03
same,Least square mean ± SE of embryos developed to 8-cell,April,0.48 ± 0.03
same,Least square mean ± SE of embryos developed to 16-cell,April,0.39 ± 0.03
same,Least square mean ± SE of embryos developed to Blastocyst,April,0.25 ± 0.03
same,Least square mean ± SE of embryos developed to Morula,April,0.32 ± 0.03
same,Least square mean ± SE of embryos developed to 2-cell,December,0.79 ± 0.05
same,Least square mean ± SE of embryos developed to 8-cell,December,0.59 ± 0.05
same,Least square mean ± SE of embryos developed to 16-cell,December,0.53 ± 0.05
same,Least square mean ± SE of embryos developed to Blastocyst,December,0.36 ± 0.05
same,Least square mean ± SE of embryos developed to Morula,December,0.41 ± 0.05
same,Least square mean ± SE of embryos developed to 2-cell,February,0.77 ± 0.04
same,Least square mean ± SE of embryos developed to 8-cell,February,0.53 ± 0.04
same,Least square mean ± SE of embryos developed to 16-cell,February,0.44 ± 0.04
same,Least square mean ± SE of embryos developed to Blastocyst,February,0.35 ± 0.04
same,Least square mean ± SE of embryos developed to Morula,February,0.40 ± 0.04
same,Least square mean ± SE of embryos developed to 2-cell,January,0.70 ± 0.04
same,Least square mean ± SE of embryos developed to 8-cell,January,0.45 ± 0.04
same,Least square mean ± SE of embryos developed to 16-cell,January,0.42 ± 0.04
same,Least square mean ± SE of embryos developed to Blastocyst,January,0.28 ± 0.04
same,Least square mean ± SE of embryos developed to Morula,January,0.32 ± 0.04
same,Least square mean ± SE of embryos developed to 2-cell,March,0.58 ± 0.05
same,Least square mean ± SE of embryos developed to 8-cell,March,0.40 ± 0.06
same,Least square mean ± SE of embryos developed to 16-cell,March,0.31 ± 0.06
same,Least square mean ± SE of embryos developed to Blastocyst,March,0.20 ± 0.05
same,Least square mean ± SE of embryos developed to Morula,March,0.23 ± 0.06
same,Least square mean ± SE of embryos developed to 2-cell,May,0.70 ± 0.05
same,Least square mean ± SE of embryos developed to 8-cell,May,0.60 ± 0.05
same,Least square mean ± SE of embryos developed to 16-cell,May,0.49 ± 0.05
same,Least square mean ± SE of embryos developed to Blastocyst,May,0.40 ± 0.05
same,Least square mean ± SE of embryos developed to Morula,May,0.44 ± 0.05
same,Least square mean ± SE of embryos developed to 2-cell,November,0.89 ± 0.07
same,Least square mean ± SE of embryos developed to 8-cell,November,0.71 ± 0.08
same,Least square mean ± SE of embryos developed to 16-cell,November,0.60 ± 0.08
same,Least square mean ± SE of embryos developed to Blastocyst,November,0.34 ± 0.07
same,Least square mean ± SE of embryos developed to Morula,November,0.57 ± 0.08
same,"formation of blastocysts (least square mean), range over months","November-May, control 0.17-0.32",0.20-0.4
same,"formation of morulae (least square mean), range over months","November-May, control 0.2-0.37",0.23-0.57
same,Number of embryos developed to 2-cell,"all months overall, 831 embryos cultured, 48 h",601
same,Number of embryos developed to 8-cell,"all months overall, 831 embryos cultured, 60 h",427
same,Number of embryos developed to 16-cell,"all months overall, 831 embryos cultured, 120 h",358
same,Number of embryos developed to Morula,"all months overall, 831 embryos cultured, 144 h",300
same,Number of embryos developed to Blastocyst,"all months overall, 831 embryos cultured, 192 h",251
same,Least square mean ± SE of embryos developed to 2-cell,"all months overall, 48 h",0.73 ± 0.02
same,Least square mean ± SE of embryos developed to 8-cell,"all months overall, 60 h",0.54 and 0.54 ± 0.02
same,Least square mean ± SE of embryos developed to 16-cell,"all months overall, 120 h",0.45 and 0.45 ± 0.02
same,Least square mean ± SE of embryos developed to Morula,"all months overall, 144 h",0.39 and 0.39 ± 0.02
same,Least square mean ± SE of embryos developed to Blastocyst,"all months overall, 192 h",0.31 and 0.31±0.02
same,effect on development to the 2-cell stage,"all months overall, P>0.73",no significant effect
